Assay results: US10730889B2, “Amido spirocyclic amide and sulfonamide derivatives” (Forma TM, LLC, priority 2012, dated 2020)
Like-named read-outs stand apart in the source and are kept apart here.

Test system: A2780 cells
Test: In-vitro cell proliferation assay (SRB, 72 hours)
Format: cell-based
Conditions: Homo sapiens, A2780 cells, 72 hours, SRB, read-out: Cell Proliferation (IC50)

COC(=O)C(C)(C)OC(=O)N1CCC2(CC1)CC2CNC(=O)c1cc2ccncc2o1 (stereo not drawn) [Example 205, (2-methoxy-1,1-dimethyl-2-oxo-ethyl) 2-[(furo[2,3-c]pyridine-2-carbonylamino)methyl]-6-azaspiro[2.5]octane-6-carboxylate]
IC50 (A2780, 72 h): 130 nM

CS(=O)(=O)N1CCCC1C(=O)N1CCC2(CC1)CC2CNC(=O)c1cc2ccncc2o1 (stereo not drawn) [Example 76, N-[[6-(1-methylsulfonylpyrrolidine-2-carbonyl)-6-azaspiro[2.5]octan-2-yl]methyl]furo[2,3-c]pyridine-2-carboxamide]
IC50 (A2780, 72 h): 228 nM

O=C(NCC1CC12CCN(C(=O)CC1CCCCO1)CC2)c1cc2ccncc2o1 (stereo not drawn) [Example 52, N-[[6-(2-tetrahydropyran-2-ylacetyl)-6-azaspiro[2.5]octan-2-yl]methyl]furo[2,3-c]pyridine-2-carboxamide]
IC50 (A2780, 72 h): 674 nM

O=C(NCC1CC12CCN(C(=O)c1ccc(OC(F)(F)F)cc1)CC2)c1cc2ccncc2o1 (stereo not drawn) [Example 247, N-[[6-[4-(trifluoromethoxy)benzoyl]-6-azaspiro[2.5]octan-2-yl]methyl]furo[2,3-c]pyridine-2-carboxamide]
IC50 (A2780, 72 h): 2000 nM

CC(C)(C)CS(=O)(=O)N1CCC2(CC1)CC2CNC(=O)c1cc2cnccc2[nH]1 (stereo not drawn) [Example 379, N-[[6-(2,2-dimethylpropylsulfonyl)-6-azaspiro[2.5]octan-2-yl]methyl]-1H-pyrrolo[3,2-c]pyridine-2-carboxamide]
IC50 (A2780, 72 h): 2000 nM

Cc1cnc(C(=O)N2CCC3(CC2)CC3CNC(=O)c2cc3ccncc3o2)cn1 (stereo not drawn) [Example 122, N-[[6-(5-methylpyrazine-2-carbonyl)-6-azaspiro[2.5]octan-2-yl]methyl]furo[2,3-c]pyridine-2-carboxamide]
IC50 (A2780, 72 h): 2000 nM

CC(C(=O)N1CCC2(CC1)CC2CNC(=O)c1cc2ccncc2o1)N1CCCC1 (stereo not drawn) [Example 53, N-[[6-(2-pyrrolidin-1-ylpropanoyl)-6-azaspiro[2.5]octan-2-yl]methyl]furo[2,3-c]pyridine-2-carboxamide]
IC50 (A2780, 72 h): 846 nM

CS(=O)(=O)c1cccc(C(=O)N2CCC3(CC2)CC3CNC(=O)c2cc3ccncc3o2)c1 (stereo not drawn) [Example 92, N-[[6-(3-methylsulfonylbenzoyl)-6-azaspiro[2.5]octan-2-yl]methyl]furo[2,3-c]pyridine-2-carboxamide]
IC50 (A2780, 72 h): 152 nM

CC(C)(C)OC(=O)N1CCC2(CC1)CC2CNC(=O)N1Cc2cn[nH]c2C1 (stereo not drawn) [Example 274, tert-Butyl 2-[(4,6-dihydro-1H-pyrrolo[3,4-c]pyrazole-5-carbonylamino)methyl]-6-azaspiro[2.5]octane-6-carboxylate]
IC50 (A2780, 72 h): 2000 nM

Cn1nnc(-c2ccc(C(=O)N3CCC4(CC3)CC4CNC(=O)c3cc4ccncc4o3)cc2)n1 (stereo not drawn) [Example 280]
IC50 (A2780, 72 h): 6.83 nM

O=C(NCC1CC12CCN(C(=O)c1ncc[nH]1)CC2)c1cc2ccncc2o1 (stereo not drawn) [Example 338, N-[[6-(1H-imidazole-2-carbonyl)-6-azaspiro[2.5]octan-2-yl]methyl]furo[2,3-c]pyridine-2-carboxamide]
IC50 (A2780, 72 h): 2000 nM

CC(C)CC(=O)N1CCC2(CC1)CC2CNC(=O)c1cc2cnccc2[nH]1 (stereo not drawn) [Example 46, N-[[6-(3-methylbutanoyl)-6-azaspiro[2.5]octan-2-yl]methyl]-1H-pyrrolo[3,2-c]pyridine-2-carboxamide]
IC50 (A2780, 72 h): 402 nM

Cc1n[nH]c(C)c1C(=O)N1CCC2(CC1)CC2CNC(=O)c1cc2ccncc2o1 (stereo not drawn) [Example 329, N-[[6-(3,5-dimethyl-1H-pyrazole-4-carbonyl)-6-azaspiro[2.5]octan-2-yl]methyl]furo[2,3-c]pyridine-2-carboxamide]
IC50 (A2780, 72 h): 55.1 nM

CS(=O)(=O)c1cccc(CC(=O)N2CCC3(CC2)CC3CNC(=O)c2cc3ccncc3o2)c1 (stereo not drawn) [Example 28, N-[[6-[2-(3-methylsulfonylphenyl)acetyl]-6-azaspiro[2.5]octan-2-yl]methyl]furo[2,3-c]pyridine-2-carboxamide]
IC50 (A2780, 72 h): 616 nM

CC(C)(C)CC(=O)N1CCC2(CC1)CC2CNC(=O)c1cc2ccncc2o1 (stereo not drawn) [Example 29, N-[[6-(3,3-dimethylbutanoyl)-6-azaspiro[2.5]octan-2-yl]methyl]furo[2,3-c]pyridine-2-carboxamide]
IC50 (A2780, 72 h): 3.03 nM

O=C(NCC1CC12CCN(C(=O)C1CCN(c3cccnn3)C1)CC2)c1cc2ccncc2o1 (stereo not drawn) [Example 146, N-[[6-(1-pyridazin-3-ylpyrrolidine-3-carbonyl)-6-azaspiro[2.5]octan-2-yl)methyl]furo[2,3-c]pyridine-2-carboxamide]
IC50 (A2780, 72 h): 74.5 nM

Cn1nccc1C(=O)N1CCC2(CC1)CC2CNC(=O)c1cc2ccncc2o1 (stereo not drawn) [Example 107, N-[[6-(2-methylpyrazole-3-carbonyl)-6-azaspiro[2.5]octan-2-yl]methyl]furo[2,3-c]pyridine-2-carboxamide]
IC50 (A2780, 72 h): 2000 nM

COc1cccc(CNC(=O)N2CCC3(CC2)CC3CNC(=O)c2cc3ccncc3o2)c1 (stereo not drawn) [Example 165, N-[[6-[(3-methoxyphenyl)methylcarbamoyl]-6-azaspiro[2.5]octan-2-yl]methyl]furo[2,3-c]pyridine-2-carboxamide]
IC50 (A2780, 72 h): 2000 nM

O=C(NCC1CC12CCN(C(=O)c1cnccc1C(F)(F)F)CC2)N1Cc2ccncc2C1 (stereo not drawn) [Example 398, N-[[6-[4-(trifluoromethyl]pyridine-3-carbonyl]-6-azaspiro[2.5]octan-2-yl]methyl]-1,3-dihydropyrrolo[3,4-c]pyridine-2-carboxamide]
IC50 (A2780, 72 h): 0.722 nM

CN1CCN(c2ccc(C(=O)N3CCC4(CC3)CC4CNC(=O)c3cc4ccncc4o3)cc2)CC1 (stereo not drawn) [Example 339, N-[[6-[4-(4-Methylpiperazin-1-yl)benzoyl]-6-azaspiro[2.5]octan-2-yl]methyl]furo[2,3-c]pyridine-2-carboxamide]
IC50 (A2780, 72 h): 1.9 nM

Cc1nc2ccccn2c1C(=O)N1CCC2(CC1)CC2CNC(=O)c1cc2ccncc2o1 (stereo not drawn) [Example 309, N-[[6-(2-methylimidazo[1,2-a]pyridine-3-carbonyl)-6-azaspiro[2.5]octan-2-yl]methyl]furo[2,3-c]pyridine-2-carboxamide]
IC50 (A2780, 72 h): 24.7 nM

O=C(NCC1CC12CCN(C(=O)c1cnn3cccnc13)CC2)c1cc2ccncc2o1 (stereo not drawn) [Example 321, N-[[6-(pyrazolo[1,5-a]pyrimidine-3-carbonyl)-6-azaspiro[2.5]oclan-2-yl]methyl]furo[2,3-c]pyridine-2-carboxamide]
IC50 (A2780, 72 h): 2000 nM

N#Cc1ccc(CC(=O)N2CCC3(CC2)CC3CNC(=O)N2Cc3ccncc3C2)cc1 (stereo not drawn) [Example 207, N-[[6-[2-(4-cyanophenyl)acetyl]-6-azaspiro[2.5]octan-2-yl]methyl]-1,3-dihydropyrrolo[3,4-c]pyridine-2-carboxamide]
IC50: 136 nM

Cc1cc(C)c(C(=O)N2CCC3(CC2)CC3CNC(=O)c2cc3ccncc3o2)cn1 (stereo not drawn) [Example 281, N-[[6-(4,6-dimethylpyridine-3-carbonyl)-6-azaspiro[2.5]octan-2-yl)methyl]furo[2,3-c]pyridine-2-carboxamide]
IC50 (A2780, 72 h): 18.5 nM

CS(=O)(=O)N1CCC(C(=O)N2CCC3(CC2)CC3CNC(=O)c2cc3ccncc3o2)CC1 (stereo not drawn) [Example 74, N-[[6-(1-methylsulfonylpiperidine-4-carbonyl)-6-azaspiro[2.5]octan-2-yl]methyl]furo[2,3-c]pyridine-2-carboxamide]
IC50 (A2780, 72 h): 169 nM

O=C(Cc1ccccc1)N1CCC2(CC1)CC2CNC(=O)N1Cc2ccncc2C1 (stereo not drawn) [Example 47, N-[[6-(2-phenylacetyl)-6-azaspiro[2.5]octan-2-yl]methyl]-1,3-dihydropyrrolo[3,4-c]pyridine-2-carboxamide]
IC50 (A2780, 72 h): 12.6 nM

O=C(NCC1CC12CCN(C(=O)Cc1ccncc1)CC2)c1cc2cnccc2[nH]1 (stereo not drawn) [Example 278, N-[[6-[2-(4-pyridyl)acetyl]-6-azaspiro[2.5]octan-2-yl]methyl]-1H-pyrrolo[3,2-c]pyridine-2-carboxamide]
IC50 (A2780, 72 h): 2000 nM

CC(C)(C)NC(=O)N1CCC2(CC1)CC2CNC(=O)c1cc2ccncc2o1 (stereo not drawn) [Example 182, N-[[6-(tert-butylcarbamoyl)-6-azaspiro[2.5]octan-2-yl]methyl]furo[2,3-c]pyndine-2-carboxamide]
IC50 (A2780, 72 h): 2000 nM

O=C(CN1CCOCC1)N1CCC2(CC1)CC2CNC(=O)N1Cc2ccncc2C1 (stereo not drawn) [Example 198, N-[[6-(2-morpholinoacetyl)-6-azaspiro[2.5]octan-2-yl]methyl]-1,3-dihydropyrrolo[3,4-c]pyridine-2-carboxamide]
IC50 (A2780, 72 h): 61.8 nM

Cn1cc(C(=O)N2CCC3(CC2)CC3CNC(=O)c2cc3ccncc3o2)cn1 (stereo not drawn) [Example 114, N-[[6-(1-methylpyrazole-4-carbonyl)-6-azaspiro[2.5]octan-2-yl]methyl]furo[2,3-c]pyridine-2-carboxamide]
IC50 (A2780, 72 h): 2000 nM

O=C(NCC1CC12CCN(C(=O)NC13CC4CC(CC(C4)C1)C3)CC2)c1cc2ccncc2o1 (stereo not drawn) [Example 169, N-[[6-(1-adamantylcarbamoyl)-6-azaspiro[2.5]octan-2-yl]methyl]furo[2,3-c]pyridine-2-carboxamide]
IC50 (A2780, 72 h): 27.8 nM

O=C(NCC1CC12CCN(C(=O)c1ccc3nccnc3c1)CC2)c1cc2ccncc2o1 (stereo not drawn) [Example 261, N-[[6-(quinoxaline-6-carbonyl)-6-azaspiro[2.5]octan-2-yl]methyl]furo[2,3-c]pyridine-2-carboxamide]
IC50 (A2780, 72 h): 15.8 nM

Cc1ccc(C(=O)N2CCC3(CC2)CC3CNC(=O)c2cc3ccncc3o2)nc1 (stereo not drawn) [Example 341, N-[[6-(5-methylpyridine-2-carbonyl)-6-azaspiro[2.5]octan-2-yl)methyl]furo[2,3-c]pyridine-2-carboxamide]
IC50 (A2780, 72 h): 717 nM

Cc1cc(C)n(CCC(=O)N2CCC3(CC2)CC3CNC(=O)c2cc3ccncc3o2)n1 (stereo not drawn) [Example 63, N-[[6-[3-(3,5-dimethylpyrazol-1-yl)propanoyl]-6-azaspiro[2.5]octan-2-yl]methyl]furo[2,3-c]pyridine-2-carboxamide]
IC50 (A2780, 72 h): 1390 nM

N#Cc1ccc(CC(=O)N2CCC3(CC2)CC3CNC(=O)c2cc3cnccc3[nH]2)cc1 (stereo not drawn) [Example 216, N-[[6-[2-(4-cyanophenyl)acetyl]-6-azaspiro[2.5]octan-2-yl]methyl]-1H-pyrrolo[3,2-c]pyridine-2-carboxamide]
IC50 (A2780, 72 h): 1340 nM

O=C(NCC1CC12CCN(C(=O)c1ccc(CN3CCCC3)cc1)CC2)c1cc2ccncc2o1 (stereo not drawn) [Example 248, N-[[6-[4-(pyrrolidin-1-ylmethyl)benzoyl]-6-azaspiro[2.5]octan-2-yl]methyl]furo[2,3-c]pyridine-2-carboxamide]
IC50 (A2780, 72 h): 4.39 nM
